According to PubChem BioAssay (NCI):
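Where inhibition never reached the appropriate level, the endpoint shown equals the highest concentration tested. Otherwise, values were interpolated linearly from a five-concentration, 48-hour dose response in 96-well plates. Definition used: TGI = concentration required for complete inhibition of growth.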 Where a SMILES comes first, the peptide text is derived from it. [ ]: non-standard residue; d: D form. The star is where a group is joined. Phe(4-NO2) = N[CH](Cc1ccc([N+](=O)[O-])cc1)C(=O)O; Boc = CC(C)(C)OC(=O)*

Columns and labels:
Experiment in all cases: NCI tumour cell line growth inhibition, 48 h
[1] = test system: HT29 colon
[2] = test system: MCF7 breast
[3] = test system: RPMI-8226 leukemia
[4] = test system: NCI-H23 lung
[5] = test system: RXF 393 renal
[6] = test system: SK-OV-3 ovarian
[7] = test system: SF-268 CNS
[8] = test system: SNB-75 CNS
[9] = test system: CAKI-1 renal
[10] = test system: UACC-257 melanoma
[11] = test system: CCRF-CEM leukemia
[12] = test system: IGROV1 ovarian
[13] = test system: LOX IMVI melanoma
[14] = test system: MDA-MB-231 breast
[15] = test system: SW-620 colon
[16] = test system: SF-295 CNS
[17] = test system: OVCAR-3 ovarian
[18] = test system: NCI-H522 lung
[19] = test system: T-47D breast
[20] = test system: MOLT-4 leukemia
[21] = test system: HOP-62 NSCLC
[22] = test system: U251 CNS
[23] = test system: SK-MEL-5 melanoma
[24] = test system: MDA-N
[25] = test system: BT-549 breast
[26] = test system: SR leukemia
[27] = test system: OVCAR-5 ovarian
[28] = test system: HCT-116 colon
[29] = test system: SF-539 CNS
[30] = test system: MDA-MB-435
[31] = test system: HL-60(TB) leukemia
[32] = test system: HS 578T breast
[33] = test system: SK-MEL-28 melanoma
[34] = test system: HOP-92 NSCLC
[35] = test system: SNB-19 CNS
[36] = test system: COLO 205 colon
[37] = test system: OVCAR-8 ovarian
[38] = test system: NCI-H460 lung
[39] = test system: KM12 colon
[40] = test system: A549 NSCLC
[41] = test system: EKVX NSCLC
[42] = test system: UO-31 renal
[43] = test system: K-562 leukemia
[44] = test system: MALME-3M melanoma
[45] = test system: SK-MEL-2 melanoma
[46] = test system: HCT-15 colon
[47] = test system: HCC-2998 colon
[48] = test system: TK-10 renal
[49] = test system: SN12C renal
[50] = test system: ACHN renal
[51] = test system: NCI/ADR-RES ovarian
[52] = test system: 786-0 renal
[53] = test system: M14 melanoma
[54] = test system: PC-3 prostate
[55] = test system: A498 renal
[56] = test system: DU-145 prostate
[57] = test system: UACC-62 melanoma
[58] = test system: OVCAR-4 ovarian
[59] = test system: NCI-H226 lung

Q: What does the source list for `CC(=O)Nc1ccc(C2SCc3nc4ccccc4n32)cc1` (centres undefined)?
A: TGI [1]: > 100 µM; TGI [2]: > 100 µM; TGI [3]: > 100 µM; TGI [4]: > 100 µM; TGI [5]: > 100 µM; TGI [6]: > 100 µM; TGI [7]: > 100 µM; TGI [8]: > 100 µM; TGI [9]: > 100 µM; TGI [10]: > 100 µM; TGI [11]: > 100 µM; TGI [12]: > 100 µM; TGI [13]: > 100 µM; TGI [14]: > 100 µM; TGI [15]: > 100 µM; TGI [16]: > 100 µM; TGI [17]: > 100 µM; TGI [18]: > 100 µM; TGI [19]: > 100 µM; TGI [20]: > 100 µM; TGI [21]: > 100 µM; TGI [22]: > 100 µM; TGI [23]: > 100 µM; TGI [24]: > 100 µM; TGI [25]: > 74.6 µM; TGI [26]: > 100 µM; TGI [27]: > 100 µM; TGI [28]: > 100 µM; TGI [29]: > 100 µM; TGI [30]: > 100 µM; TGI [31]: > 100 µM; TGI [32]: > 95.5 µM; TGI [33]: > 100 µM; TGI [34]: > 100 µM; TGI [35]: > 100 µM; TGI [36]: > 100 µM; TGI [37]: > 100 µM; TGI [38]: > 100 µM; TGI [39]: > 100 µM; TGI [40]: > 100 µM; TGI [41]: > 100 µM; TGI [42]: > 100 µM; TGI [43]: > 100 µM; TGI [44]: > 86.8 µM; TGI [45]: > 100 µM; TGI [46]: > 100 µM; TGI [47]: > 100 µM; TGI [48]: > 100 µM; TGI [49]: > 100 µM; TGI [50]: > 100 µM; TGI [51]: > 100 µM; TGI [52]: > 100 µM; TGI [53]: > 100 µM; TGI [54]: > 100 µM; TGI [55]: 28.6 µM; TGI [56]: > 100 µM; TGI [57]: > 100 µM; TGI [58]: > 100 µM

Q: Which results are given for `CNC(=O)CCC(NC(=O)OC(C)(C)C)C(=O)NC(Cc1ccc([N+](=O)[O-])cc1)C(=O)NCC(=O)NC` (centres undefined) (Boc-Glu(NHMe)-[Phe(4-NO2)]-Gly-NHMe; configuration not given here)?
A: TGI [1]: > 100 µM; TGI [59]: > 100 µM; TGI [2]: > 100 µM; TGI [3]: > 100 µM; TGI [4]: > 100 µM; TGI [5]: > 100 µM; TGI [6]: > 100 µM; TGI [7]: > 100 µM; TGI [8]: > 100 µM; TGI [9]: > 100 µM; TGI [12]: > 100 µM; TGI [13]: > 100 µM; TGI [14]: > 100 µM; TGI [15]: > 100 µM; TGI [16]: > 100 µM; TGI [17]: > 100 µM; TGI [18]: > 100 µM; TGI [19]: > 100 µM; TGI [20]: > 100 µM; TGI [21]: > 100 µM; TGI [22]: > 100 µM; TGI [23]: > 100 µM; TGI [24]: > 100 µM; TGI [25]: > 100 µM; TGI [26]: > 100 µM; TGI [27]: > 100 µM; TGI [28]: > 100 µM; TGI [29]: > 100 µM; TGI [30]: > 100 µM; TGI [31]: > 100 µM; TGI [32]: > 100 µM; TGI [33]: > 100 µM; TGI [34]: > 100 µM; TGI [35]: > 100 µM; TGI [36]: > 100 µM; TGI [37]: > 100 µM; TGI [38]: > 100 µM; TGI [39]: > 100 µM; TGI [40]: > 100 µM; TGI [41]: > 100 µM; TGI [42]: > 100 µM; TGI [43]: > 100 µM; TGI [44]: > 100 µM; TGI [46]: > 100 µM; TGI [47]: > 100 µM; TGI [48]: > 100 µM; TGI [49]: > 100 µM; TGI [50]: > 100 µM; TGI [51]: > 100 µM; TGI [52]: > 100 µM; TGI [53]: > 100 µM; TGI [54]: > 100 µM; TGI [55]: > 100 µM; TGI [56]: > 100 µM; TGI [57]: > 100 µM; TGI [58]: > 100 µM
